Values of other authors, collected in patent US9532987B2, “Use of a combination of a MEK inhibitor and an ERK inhibitor for treatment of hyperproliferative diseases” (Genentech, Inc., priority 2013, dated 2017).

Columns and labels:
[1] = tested on: tumor cells bearing activating Ras mutations
[2] = tested on: tumor cells bearing activating B-RAF mutations

Row | Compound | inhibition of tumor cell growth [1] | inhibition of tumor cell growth [2]
1 | O=C(NOCCO)c1ccc2cncn2c1Nc1ccc(I)cc1F [GDC-0623, 5-[(2-fluoro-4-iodophenyl)amino]-N-(2-hydroxyethoxy)-imidazo[1,5-a]pyridine-6-carboxamide] | more activity | effective
2 | O=C(c1ccc(F)c(F)c1Nc1ccc(I)cc1F)N1CC(O)([C@@H]2CCCCN2)C1 [GDC-0973, [3,4-difluoro-2-[(2-fluoro-4-iodophenyl)amino]phenyl][3-hydroxy-3-[(2S)-2-piperidinyl]-1-azetidinyl]methanone] | effective | more activity
